Publication PMC9953885 (Biosensors, 2023)
Structures can show the parent of a compound that is named as a salt.

Key:
[1] = target: T1, human pancreatic lipase (hPL) (Homo sapiens, UniProt P16233); conditions: 10 µM; inhibitor
T1 construct: gene PNLIP
T1 sequence (P16233 17-465): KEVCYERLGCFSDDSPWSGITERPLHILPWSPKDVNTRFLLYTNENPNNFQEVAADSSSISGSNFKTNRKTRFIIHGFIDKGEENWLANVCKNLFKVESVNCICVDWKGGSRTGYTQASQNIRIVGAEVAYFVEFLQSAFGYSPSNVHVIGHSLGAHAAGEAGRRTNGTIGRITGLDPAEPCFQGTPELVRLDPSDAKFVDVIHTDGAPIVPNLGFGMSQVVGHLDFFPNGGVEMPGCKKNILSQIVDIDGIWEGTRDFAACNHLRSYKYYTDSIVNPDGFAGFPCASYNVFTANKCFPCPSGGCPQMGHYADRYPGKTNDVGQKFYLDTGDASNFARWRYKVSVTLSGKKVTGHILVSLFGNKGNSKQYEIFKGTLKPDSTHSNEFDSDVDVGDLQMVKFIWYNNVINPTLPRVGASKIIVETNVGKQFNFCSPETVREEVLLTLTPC

[2] = target: T1, human pancreatic lipase (hPL); test: RLE-based fluorescence hydrolysis assay, dose-inhibition; type: biochemical
[3] = target: T1, human pancreatic lipase (hPL); test: Michaelis-Menten kinetics of fluorogenic substrate hydrolysis (Km); type: biochemical

SMILES | % of control remaining [1] [%] | IC50 [2] [µM] | Km [3] [µM]
O=C(c1ccc(OCCN2CCCCC2)cc1)c1c(-c2ccc(O)cc2)sc2cc(O)ccc12 [d1, raloxifene] | 4.05 | 5.63 | –
CNC(=O)c1cc(Oc2ccc(NC(=O)Nc3ccc(Cl)c(C(F)(F)F)c3)cc2)ccn1 [f1, sorafenib tosylate] | 44.04 | 15.6 | –
CCCCCCCCCCCC(=O)Oc1ccc2nc3ccc(=O)cc-3oc2c1 [RLE, 3-oxo-3H-phenoxazin-7-yl dodecanoate] | – | – | 10.4
CC(C)c1cc2c(c(O)c1O)[C@@]13CCCC(C)(C)[C@@H]1C[C@@H]2OC3=O [h9, carnosol] | 4.20 | 0.58 | –
COc1ccc(-c2cc(=O)c3c(O)cc(O)c(-c4cc(-c5cc(=O)c6c(O)cc(OC)cc6o5)ccc4OC)c3o2)cc1 [h10, sciadopitysin] | 5.25 | 1.36 | –
COc1ccc(-c2coc3cc(O[C@@H]4O[C@H](CO)[C@@H](O)[C@H](O)[C@H]4O)ccc3c2=O)cc1O [Calycosin 7-O-glucoside] | 84.02 | – | –
COC1=C[C@@H]2[C@@H]3Cc4ccc(OC)c(O)c4[C@]2(CCN3C)CC1=O [Sinomenine] | 101.42 | – | –
Oc1ccc2c(c1)OCO2 [Sesamol] | 103.95 | – | –
CCCCC1OC(=O)C2=C1CCC=C2 (stereo not drawn) [3-N-butyl-4,5-dihydrophthalide] | 75.65 | – | –
C=C1CC[C@@H]2[C@](C)(CO)[C@H](O)CC[C@@]2(C)[C@@H]1C/C=C1/C(=O)OC[C@H]1O [Andrographolide] | 70.38 | – | –
CN(C)CCOC(c1ccccc1)c1ccccc1 [Diphenhydramine Hydrochloride] | 88.58 | – | –
CC(=O)O[C@@H]1C[C@H](O)[C@@]23CO[C@@H](O)[C@]1(C)[C@@H]2C[C@@H](O)[C@]1(C)[C@@H]3C(=O)[C@H](OC(C)=O)[C@@]2(C)[C@H](c3ccoc3)C[C@H]3O[C@]321 [Toosendanin] | 72.37 | – | –
CN(C)CCCN1c2ccccc2CCc2ccccc21 [Imipramine hydrochloride] | 92.51 | – | –
CC1(C)[C@H](C(=O)O)N2C(=O)C[C@H]2S1(=O)=O [Sulbactam sodium] | 88.89 | – | –
CCOC(=O)N1CCC(=C2c3ccc(Cl)cc3CCc3cccnc32)CC1 [Loratadine] | 96.14 | – | –
O=c1cc(-c2ccc(O)cc2)oc2cc(O)c([C@@H]3O[C@H](CO)[C@@H](O)[C@H](O)[C@H]3O)c(O)c12 [Isovitexin] | 79.86 | – | –
CC1=C(C(=O)O)N2C(=O)[C@@H](NC(=O)[C@H](N)c3ccccc3)[C@H]2SC1 [Cephalexin] | 109.58 | – | –
